Experimental data published in US20140242093A1, “METHODS AND COMPOSITIONS FOR MODULATING THE INNATE IMMUNE RESPONSE AND/OR MYOGENESIS IN A MAMMALIAN SUBJECT” (FRED HUTCHINSON CANCER RESEARCH CENTER, priority 2011, published 2014).

Tests used:
[1] = system: Cultured human muscle cells (54-1); assay: Conditioned media from lenti-DUX4-fl cells on lenti-GFP transduced cells, RT-PCR of IFIH1 and DEFB103A/B; assay type: cell-based
Protocol: It was determined that DEFB103A (SEQ ID NO:49) and DEFB103B (SEQ ID NO:107), each encoding the polypeptide DEFB103A/B set forth as SEQ ID NO:178, are both activated by lenti-DUX4-fl and not by lenti-DUX4-s or lenti-GFP. These represent transcripts from a duplicated beta-defensin 3 gene, which can function as a suppressor of inflammation. As a secreted protein, DEFB103A/B (SEQ ID NO:178) has the potential to suppress the innate immune response in cells infected with lenti-GFP. As an initial step toward testing this, the inventors transduced cells with lenti-DUX4-fl or nothing for 12 hrs, washed extensively and replaced the culture media, then after an additional 12 hrs transferred the conditioned media to cells infected 24 hrs earlier with lenti-GFP.
Cultured human muscle cells (54-1) were transduced with nothing (first lane panels A and B), lenti-DUX4-fl @ approximately MOI=10 (lane 2), lenti-DUX4-fl MOI ˜1 (lane 3), lenti-GFP MOI ˜10 (lane 4), lenti-GFP transduced cells exposed to conditioned media from lane 2 cells (lane 5), lenti-GFP transduced cells exposed to conditioned media from lane 3 cells (lane 6), lenti-GFP transduced cells exposed to media from lane 5 cells that was filtered through a 35 kD cut-off filter. The conditioned media from the lenti-DUX4 transduced cells suppresses the IFIH1 induction by lenti-GFP (Panel A).

[2] = system: cultured human skeletal muscle cells; settings: cited from earlier work

DUX4-fl: full-length DUX4 protein (SEQ ID NO:110), expressed from lentiviral or pCS2 vectors or in vitro translated
expression of DEFB103A/B ([1]; RT-PCR): induces expression of DEFB103A/B
activation of IFIH1 by the construct ([1]; qRT-PCR, no conditioned medium): did not
toxicity of forced over-expression [2]: toxic to cells, inducing apoptotic cell death
